Data: a melting point compilation (Tetko et al.; mined from patent text by program, amines drawn as free bases though some values may be those of a salt)

melting point | Compound
196 °C | CCOC(=O)N1CCN(c2ccc(-n3cnn(C(CC)C(O)c4ccc(Cl)cc4)c3=O)cn2)CC1 (stereo not given)
110 to 111 °C | OC(CSc1nccs1)(Cn1cncn1)c1ccc(Cl)cc1Cl (stereo not given)
85 to 86 °C | COc1cc(C)c(OCCCC(C)(C)C(=O)O)cc1C
230 °C | CCOC(=O)C1=C(C)Nc2nc(N)nc(N)c2C1c1cccc([N+](=O)[O-])c1 (stereo not given)
80.5 to 81 °C | O=[N+]([O-])c1ccc2c(c1)CN(Cc1ccccc1)C2
126 to 128 °C | COc1cccc(N(CCN2CCC(C(=O)c3ccc(F)cc3)CC2)C(=O)c2ccc(N)cc2)c1
178 to 180 °C | CCn1c(=O)c(C)cc2cnc(Nc3ccccc3)nc21
177 °C | COC(=O)c1ccc(/C=C/C(=O)NOC2CCCCO2)s1 (stereo not given)
33 to 34 °C | COC1=C(OC)C(=O)C(CCCCC[C@H]2CC[C@H](OC(C)=O)CC2)=C(C)C1=O
86 to 88 °C | CC(=O)OCCn1cc(-c2ccccc2)[nH]c1=O
215 to 218 °C | O=C(Cn1c(-c2ccc(Cl)cc2)nc2cccnc21)N1CCSC1
50 °C | COc1ccc(COc2ncccc2C(=O)O)cc1OC1CC2CCC1C2 (stereo not given)
114 °C | CC(SC1COC(c2ccc3cc(C(=O)Nc4ccc(C#N)cc4)ccc3c2)OC1)C(O)(Cn1cncn1)c1ccc(F)cc1F (stereo not given)
226 to 228 °C | O=C1CC2(CN1)CC(=O)c1cc(Cl)cc(Cl)c12 (stereo not given)
191 °C | CCn1c(=O)ccn(-c2ccc(N)cc2)c1=O
148 to 150 °C | c1ccc(N2CCN(Cc3n[nH]c4ccccc34)CC2)nc1
265 to 270 °C | Nc1ccc(C=C2SC(=O)NC2=O)cc1
167 to 170 °C | CC1Nc2ccccc2N2CCc3cc(Cl)cc1c32 (stereo not given)
103 to 107 °C | Nc1nc2c(s1)CCN(CC=Cc1ccccc1OCc1ccccc1)CC2
> 300 °C | Cc1cc(C)cc(CON2C(=O)COc3ccc(C=C4SC(=S)NC4=O)cc32)c1
281 to 285 °C | O=C1NC(=O)C(Cc2ccc(NC(=O)c3cc(=O)c4cc(Br)ccc4o3)cc2)S1 (stereo not given)
178 to 189 °C | c1nc(Nc2ccc3[nH]ccc3c2)c2sc(-c3ccsc3)cc2n1
210 °C | Cc1ccc2c(c1)c1c(n2Cc2ccc(F)cc2)CCCC1=O
> 300 °C | CCc1[nH]n(C2CCCC2)c2nc(S(C)(=O)=O)nc(=O)c1-2

melting point | Compound
82 to 85 °C | COc1cc(OC)c(C2CCN(C)C2CO)c(OC)c1 (stereo not given)
50 to 53 °C | CC(C)OCC(=O)NC1CCN(CC23CC(c4ccccc42)c2ccc(Cl)cc23)CC1 (stereo not given)
133 to 135 °C | CN1C[C@H]2Cc3ccc(Cl)cc3[C@H](c3ccc(Cl)cc3)[C@H]2C1 (racemic)
188 to 190 °C | O=C1NCCc2ccc(OCCCCN3CCN(c4cccc5ccccc45)CC3)nc2N1
56 to 57 °C | CCc1ccc(C)cc1-n1cncc1C(=O)OC
142 to 144 °C | CC(=O)Cc1nc2cc(C)ccc2c(=O)o1
121 to 123 °C | COc1c(C(=O)O)ccc(Cl)c1SC
77 to 78 °C | O=C1CCCCCC1C(c1ccc(Cl)cc1)[N+](=O)[O-] (racemic)
129 to 130 °C | CC(C)(C)OC(=O)NN(Cc1cc(F)cc(F)c1)C(N)=O
> 300 °C | CN1CCN(c2nc(C=C3SC(=S)N(CC(=O)O)C3=O)cs2)CC1
130 to 131 °C | COc1cc(C)c(NS(=O)(=O)N(C)C)cc1C(=O)NCC1CCCO1 (stereo not given)
172 to 175 °C | CC(=O)OC1CSC(Oc2ccc3cc[nH]c3c2)C(OC(C)=O)C1OC(C)=O (stereo not given)
165 to 185 °C | CCc1ccc2nc(C)[nH]c(=O)c2c1
252 to 256 °C | Cn1nc(-c2ccc(Cl)c(Cl)c2)cc1C(=O)O
166 to 167 °C | CN(C1CCN(CCCC(F)(F)F)CC1)S(=O)(=O)c1ccc(Nc2nccc(Nc3ccc(F)cc3)n2)cc1
36 to 37.5 °C | CCOC(=O)c1c(SCC)cc(C(F)(F)F)nc1C(F)(F)F
102 to 103 °C | Nc1c(Cl)cc(C(O)CNCCCCCCOCCc2ccc(N3CCOCC3)cc2)cc1Cl (stereo not given)
205 to 208 °C | COc1ccc(CCc2oc3ccc(C#N)cc3c2C(=O)O)cc1
255 to 258 °C | Cc1nc2cnccc2n1-c1ccc(OCc2cccc(C(=O)O)c2)cc1
138 to 140 °C | C=Cc1nn(Cc2ccc(C(=O)OC)cc2OC)c2cc(C(=O)NCC3CCCC3)ccc12
120 to 122 °C | CCOC(=O)CN1C(=O)COc2cc([N+](=O)[O-])ccc21
136 to 138 °C | CN(C)C(=O)NCC(C)(C)c1ccc2nc(-c3ccncc3)[nH]c2c1
135 °C | CC(C)N(CCC(=O)OC1c2ccccc2C(=O)N1c1ccc2ccc(Cl)nc2n1)C(C)C (stereo not given)
113 to 114 °C | COc1ccc(CS[C@H]2C[C@@H](C(N)=O)N(C)C2)cc1

Continued, molecule first:

Compound | melting point
Cn1ccnc1Sc1ccccc1[N+](=O)[O-] | 117 to 119 °C
CCCCc1c(NCCCO)cnn(C(C)(C)C)c1=O | 106 to 108 °C
COC(=O)c1cc([N+](=O)[O-])c(C(C)(C)C)c([N+](=O)[O-])c1 | 115 to 117 °C
CCOC(=O)/C=C/c1ccc(OCCCS(C)(=O)=O)cc1Oc1ncc(C(F)(F)F)cc1Cl | 191 °C
CCOC(=O)c1cn(-c2ccc(C(F)(F)F)cn2)nc1C(C)C | 94 to 95 °C
CCOP(=S)(OCC)Oc1nsc(N(C)C)n1 | 48 °C
CC(C)(C(=O)COc1cccc2ccccc12)C1OCCO1 | 69 °C
SCc1cn2ccccc2n1 | 168 to 178 °C
COc1ccc(-c2nc(N)sc2-c2cccnc2)cc1 | 265 to 266 °C
CC(C)[C@H](NC(=O)OCc1ccccn1)C(=O)N[C@@H](Cc1ccccc1)[C@@H](O)C[C@H](Cc1ccccc1)NC(=O)OCc1cncs1 | 176 to 177 °C
N#CCc1nc(N)nc(N)c1-c1ccc(Cl)cc1Cl | 249 to 251 °C
Nc1c(Oc2ccc(F)c(C(F)(F)F)c2)nc(Br)nc1Oc1ccc(F)c(C(F)(F)F)c1 | 184 to 186 °C
CCC(=O)C(=Cc1cccc(C#N)c1)C(=O)CC | 51 to 52 °C
CCCCCCCCCCCCSc1nnn(C(C(N)=O)(c2ccccc2)c2c(C(C)C)cccc2C(C)C)n1 (stereo not given) | 102 to 105 °C
CC(=O)Nc1ccc(Oc2c(-c3ccc(S(C)(=O)=O)cc3)cnn(CC(F)(F)F)c2=O)cc1 | 215 to 216 °C
COc1cc(OC)nc(C2OC(=O)c3c(-c4ccccc4)ccnc32)n1 (stereo not given) | 151 to 154 °C
CCOCc1nc2c(N)nc3cc(OCc4ccc(C)cc4)ccc3c2n1CC(C)C | 209 to 210 °C
CCCc1nc(CO)c(C(=O)OCC)n1Cc1ccc(-c2ccccc2C(=O)OC(C)(C)C)cc1 | 108 to 110 °C
CNC(=O)c1cccc(-c2ccc(OC(C)C(O)CCc3cccnc3)cc2)c1 (stereo not given) | 54 to 55 °C
COc1ccc(-c2ocnc2-c2cc(OC)c(O)c(OC)c2)cc1N | 101 to 102 °C
CN(C)CCOc1ccc(Nc2nccc(-c3cccnc3)n2)cc1 | 108 to 110 °C
CCCNC(=O)C(C)(C)Cc1ccc2c(c1)c(Cc1ccc(C(=O)NS(=O)(=O)c3ccccc3C)cc1OC)cn2CCC | 102 to 112 °C
O=C(CS(=O)(=O)C(c1ccc(Cl)cc1)c1ccc(Cl)cc1)C(F)(F)F | 60 to 62 °C
CN(C)N=Nc1cc([N+](=O)[O-])sc1C(N)=O | 240 to 246 °C
N#Cc1cc(Oc2ccc(Cl)c(Cl)c2)cnc1Cl | 76 to 78 °C
Nc1nc(C#Cc2ccccc2)nc2nc(-c3ccco3)nn12 | > 280 °C

Compound | melting point
CC(=O)OC1CCC2(C)C(CCC3C2CC(OC(C)=O)C2(C)C(C(C)CCC=O)CCC32)C1 (stereo not given) | 145 °C
O=C1NC(=O)c2c1cc1ccc3c(c1c2-c1ccc(F)cc1)OCO3 | 269 to 271 °C
CNC(=O)c1cc2nc(C(F)(F)F)ccc2c(OC)c1NC(=O)c1cc(C(F)(F)F)nn1-c1ncccc1Cl | 209 to 211 °C
NC(=O)c1nc[nH]c1F | 253 to 254 °C
CCCc1nc2c(N)nc3cc(OCc4ccc(C(F)(F)F)cc4)ccc3c2n1CC(C)C | 192 to 194 °C
N#Cc1ccc2c(c1)Cc1cc(C#N)ccc1-2 | 282 to 284 °C
O=Cc1c[nH]c2ccc(-c3ccc4[nH]cnc4c3)cc12 | > 280 °C
Cc1ccc(S(=O)(=O)Oc2ccc(S(=O)(=O)C3=Cc4ccccc4C3)cc2)cc1 | 174 °C
O=C(O)C(CBr)(c1ccccc1)c1ccccc1 | 201 to 202 °C
CCCSc1cscc1S(=O)(=O)NC(C)(C)C | 61 to 63 °C
O=C(O)c1cc(Cl)ccc1Nc1ccc(OCc2ccccc2)cc1 | 189 to 191 °C
CC(C)(C)C(NC(=O)Cc1ccc(Cl)cc1)NC(=NC#N)c1cccc2ncccc12 (stereo not given) | 218 to 220 °C
Oc1ccc(Oc2ncc(Cl)cc2F)cc1 | 90 to 92 °C
CCOC(=O)C(=NO)c1cccc(Br)c1 | 113 to 114 °C
COc1cc(C(C)=O)ccc1OC/C=C\CCl | 64 to 66 °C
CC1(C)OC(=O)Nc2ccc(-c3ccc(C#N)c(F)c3)cc21 | 272 to 275 °C
c1ccc(-c2ncc(-c3nnc(-c4ccccc4)[nH]3)cn2)cc1 | 280 to 282 °C
CNC(=O)C(Cc1c[nH]c2ccccc12)NC(=O)C(CC(C)C)C(S)CC(=O)OC (stereo not given) | 73 to 75 °C
CC(=O)c1ccc(-c2ccc(F)cc2)c(N)c1 | 88 to 91 °C
COC(=O)[C@H](Cc1ccc(-c2c(C)cc(C(F)(F)F)n(C)c2=O)cc1)NC(=O)c1c(Cl)cccc1Cl | 170 to 173 °C
COc1ccc(CCCC(=O)O)cc1NC(=O)C[C@H]1O[C@H](c2cccc(OC)c2OC)c2cc(Cl)ccc2N(CC(C)(C)CO)C1=O | 119 to 121 °C
Nc1nonc1-c1nc2ccccc2n1COc1ccc(F)cc1 | 155 to 158 °C
c1coc(CNc2nccc3ccccc23)c1 | 76 to 77 °C
CCNc1nc(SC)nc(SC)c1[N+](=O)[O-] | 149 to 150 °C
CCNCC1Cc2cc(F)cc(-c3c(Cl)cccc3Cl)c2O1 (stereo not given) | 138 °C
Cn1c(=O)c2c(ncn2CCCN2CC=C(c3c[nH]c4ccc(Br)cc34)CC2)n(C)c1=O | 195 °C
